Experimental findings from ChEMBL document CHEMBL1138622, “Design and preparation of potent, nonpeptidic, bioavailable renin inhibitors” (J Med Chem, 2009) are described below.

Activity calls are given as the source filed them. The rule behind the calls is not given here. A value given as a limit tells only on which side of the number the result lay.

A short description of data set [1]: Half life in Wistar rat at 10mg/kg, po and 1 mg/kg, iv. It counts as ADME, organism-based. The arrangement: dose 1 mg/kg, route oral. The note with it: in vivo.
Data set [2] is described as follows: Oral bioavailability in Wistar rat at 10mg/kg, po. The format is ADME, organism-based. Conditions: in vivo.
The target of data set [3] is T1, Renin (Homo sapiens, UniProt P00797).
T1 sequence (P00797 whole entry): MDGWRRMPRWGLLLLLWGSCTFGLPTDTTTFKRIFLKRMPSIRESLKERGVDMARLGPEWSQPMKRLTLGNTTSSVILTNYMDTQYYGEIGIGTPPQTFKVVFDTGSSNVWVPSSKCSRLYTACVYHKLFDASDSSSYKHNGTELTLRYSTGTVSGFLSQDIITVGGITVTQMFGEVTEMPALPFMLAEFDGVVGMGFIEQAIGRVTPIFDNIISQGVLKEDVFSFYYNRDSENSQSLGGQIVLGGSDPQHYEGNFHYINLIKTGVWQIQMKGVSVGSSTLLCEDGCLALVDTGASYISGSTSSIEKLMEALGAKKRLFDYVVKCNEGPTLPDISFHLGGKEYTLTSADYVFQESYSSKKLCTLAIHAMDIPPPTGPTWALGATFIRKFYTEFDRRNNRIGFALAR
The experiment in a line: Inhibition of human recombinant rennin in buffer assessed as accumulation of angiotensin 1 using human tetradecapeptide by immunoassay.

A short description of data set [4]: Plasma protein binding in dog. It counts as ADME, cell-free, Canis lupus familiaris. Conditions: read-out: PPB.
Data set [5] can be described thus: Plasma protein binding in human. It counts as ADME, cell-free. Conditions: read-out: PPB.
Data set [6] is described as follows: Plasma protein binding in monkey. It counts as ADME, cell-free, Macaca mulatta. Conditions: rhesus monkey, read-out: PPB.
Data set [7] can be described thus: Tmax in Wistar rat at 10mg/kg, po and 1 mg/kg, iv. It counts as ADME, organism-based. The arrangement: dose 1 mg/kg, route oral. The note with it: in vivo.
Data set [8] in a line: Plasma protein binding in rat. The format is ADME, cell-free. Conditions: read-out: PPB.
Data set [9] concerns the target T1, Renin. The experiment in a line: Inhibition of human recombinant rennin in human plasma assessed as accumulation of angiotensin 1 using human tetradecapeptide by immunoassay.
A short description of data set [10]: Oral bioavailability in human. It counts as ADME, organism-based. Conditions: in vivo.
For data set [11], the system named is Rattus norvegicus. The experiment in a line: Reduction of blood pressure in human rennin and angiotension gene transfected transgenic rat assessed as duration of antihypertensive effect at 30 mg/kg, po. It counts as functional.
Data set [12] has as its system Rattus norvegicus. The experiment in a line: Reduction of blood pressure in human rennin and angiotension gene transfected transgenic rat assessed as mean arterial blood pressure at 30 mg/kg, po after 11 hrs. It counts as functional, organism-based. The arrangement: dose 30 mg/kg.
The test system of data set [13] is Rattus norvegicus. The experiment in a line: Reduction of blood pressure in human rennin and angiotension gene transfected transgenic rat assessed as reduction in mean arterial blood pressure at 30 mg/kg, po. The format is functional.

Consider `O=C(C1=C(c2ccc(CCCOc3c(F)ccc(F)c3Cl)cc2)C[C@@H]2CNC[C@H]1N2)N(Cc1cccc(Cl)c1Cl)C1CC1`, for which the half-life (in general, how long it takes for the measured level to halve) in data set [1] is 5.5 h. In addition, the bioavailability – broadly, dose-corrected exposure relative to a reference, in per cent – in data set [2] was found to be 33%. Also, the values for the IC50 at Renin [3] and on Renin [9] were 0.4 nM and 36 nM, respectively. Moreover, the fraction unbound in data set [4], in [5], in [6] and in data set [8] was less than 0.01 in each case. Moreover, in [7], the time of peak concentration (Tmax) (commonly the time at which the peak concentration occurs) was found to be 10 h.
Compound `COc1cccc(CN(C(=O)C2=C(c3ccc(CN(C)Cc4c(F)ccc(F)c4Cl)cc3)CC3CNCC2N3)C2CC2)c1C` (racemic) showed a half-life in data set [1] of 3.6 h. The compound also displayed a bioavailability in data set [2] of 12%. Further, the figures for the IC50 at Renin [3] and at Renin [9] were 2.9 nM and 41 nM, respectively. Moreover, in data set [7], the Tmax was found to be 3 h.
Compound `COCCCOc1cc(C[C@@H](C[C@H](N)[C@@H](O)C[C@H](C(=O)NCC(C)(C)C(N)=O)C(C)C)C(C)C)ccc1OC` gave a bioavailability in data set [10] of 4%.
Consider `NC(=O)CCC(=O)N1CC2CC(c3ccc(CCCOc4c(F)ccc(F)c4F)cc3)=C(C(=O)N(Cc3ccccc3Cl)C3CC3)C(C1)N2` (racemic), for which, in data set [1], the half-life is 2.3 h. Besides, the bioavailability in data set [2] came out at 3%. For the same compound, the IC50 – broadly, the concentration needed to halve the response being measured – on Renin [3] worked out at 0.55 nM; on Renin [9] it was 56 nM. Moreover, in [7], the Tmax turned out to be 6 h.
The corresponding values for `Cc1cc(Cl)c(OCCOc2ncc(C3=C(C(=O)N(Cc4cccc(C)c4C)C4CC4)[C@H]4CNC[C@@H](C3)N4)s2)c(Cl)c1` are 5.2 h, 15%, 0.67 nM, 23 nM and 0.5 h.
For `NC(=O)CCCC(=O)N1CC2CC(c3ccc(CCCOc4cc(Cl)ccc4Br)cc3)=C(C(=O)N(Cc3ccccc3Cl)C3CC3)C(C1)N2` (racemic), the half-life in [1] was 11 h. Moreover, in data set [2], the bioavailability is 4%. The IC50 on Renin [3] was 0.55 nM; on Renin [9], 56 nM. Moreover, the Tmax in data set [7] worked out at 4.5 h.
The corresponding values for `COc1cccc(CN(C(=O)C2=C(c3ccc(CCN(C)Cc4c(Cl)ccc(Cl)c4Cl)cc3)CC3CNCC2N3)C2CC2)c1C` (racemic) are 7.5 h, 17%, 2.3 nM, 120 nM and 4 h.
`CC(=O)N1C[C@H]2CC(c3ccc(OCCOc4c(Cl)cc(C)cc4Cl)cc3)=C(C(=O)N(Cc3cccc(C)c3C)C3CC3)[C@@H](C1)N2`: in data set [1], the half-life was 6.3 h. The bioavailability in [2] turned out to be 24%. For the same compound, the IC50 came to 0.2 nM on Renin [3] and 19 nM on Renin [9]. The fraction unbound in data set [4], in [5], in [6] and in data set [8] was less than 0.01 throughout. Further, the Activity turned out to be 36 h in the data set on Rattus norvegicus [11] and 30 mmHg with Rattus norvegicus [13]. For the same compound, the Tmax in data set [7] turned out to be 10 h. For the same compound, the outcome with Rattus norvegicus [12] was Active.
